Consider 1 compound from patent US8193175B2, “Ruthenium complexes for treating cancers” (Universite de Strasbourg, priority 2004, dated 2012).

The test system of assay [1] is A172, HS683, N2A, and SH5Y. As to the kind of experiment: MTT test on glioblastoma and neuroblastoma lines. The note with it: 48 hrs treatment; compared with cisplatinum. Type of assay: cell-based, human. The protocol: FIG. 1: The A172 cells were cultivated on plates with 96 wells in DMEM medium with 10% calf serum. At 30% confluence, the cells were treated for 48 hrs with cisplatinum or the various compounds derived from ruthenium in the concentrations indicated (1, 5, 15, 50 μM). The quantity of cells present in the wells was evaluated by an MTT (MTT, Sigma) test of which the products of the reaction are quantified with an Elisa plate reader (Metertech, USA) (490-650 nm). The results obtained were related to the values of the control condition (100% viability). The graphs show an average of 8 points with the typical spacings over one experiment representative of 4 carried out. The thick black line indicates the IC50 for each graph.
TABLE 2: a summary of the results obtained on various cell lines and primary glial cultures. The experiments were carried out under the same conditions as those described for the A172 cells. Each IC50 is an indicative value obtained over 4 independent experiments.
(§1) The first step towards characterising the anticancerous effects of the compounds derived from ruthenium consists of testing their activity on tumoral lines kept in culture and comparing these effects on lines which have different characteristics as regards resistance to the anticancer treatments. Two lines of human glioblastomas (A172, HS683) and two lines of neuroblastomas (N2A and SH5Y) were used in order to test the cytostatic effects of the compounds according to the invention. Cisplatinum was chosen as the cytotoxic comparison agent. In a first approach, an MTT test was used to measure the activity of a mitochondrial enzyme, and this gives an estimate of the number of cells. Then, the cytotoxic effects of the compounds according to the invention were characterised in greater detail by analysing the morphology of the nucleus and the activation of caspase 3—two markers of cell apoptosis.

A further assay concerns HCT116 cells. As to the kind of experiment: Western blot of p53, p21 and phospho-histone H3 in HCT116 cells. It counts as cell-based, human. The note with it: 10 μM. The procedure: FIG. 5: Detection of p53, p21 and of the phosphorylation of histone H3 in the HCT116 cells treated with CDR. The HCT116 cells were treated with the various compounds (10 μM) and for the periods of time indicated (24 hrs or 6 hrs). The proteins were extracted with a lysis buffer and were separated on 10% SDS-Page gel. After being transferred onto nitrocellulose, the p53, p21 proteins and histone H3 were detected by Western blot using anti-p53 (pAb1801), anti-p21 (1/200, Oncogene) antibody and anti-phospho serine 10 of histone H3 (1/2000, Santacruz).
(§2) For the purpose of determining the molecular mechanisms used by the ruthenium derivatives and comparing them with those induced by cisplatinum, the expression of p53, p73 p21 and bax in the A172 and HCT116 lines was analysed.

A further assay deals with A172 glioblastoma cells. Kind of assay: Nucleus morphology and caspase 3 activation in A172 cells. It counts as cell-based, human.
Excerpt: FIG. 2: A—The A172 cells were cultivated on glass slides. […] The cells were then fixed in 4% paraformaldehyde, permeabilised with 0.1% NP40 and marked with Hoechst dye (blue) and the anti-p20 antibody (active fragment of caspase 3, in red). The cells were then observed under the fluorescence microscope. B—Graphic representation of the number of cells with an apoptotic, fragmented or condensed nucleus. The bars are an average of two slides from one experiment representative of 3 carried out. C—In parallel, proteic extracts were prepared from cells treated with various drugs (cisplatinum 15 μM; CDR225 μM; CDR615 μM; CDR915 μM) and following denaturation the extracts were deposited on a !0% SDS-Page gel. After migration, the proteins were transferred onto nitrocellulose (Biorad, 0.2 μm) and the p20 fragment of the caspase 3 was detected by Western blot with an anti-p20 antibody (1/1000, R&D System).
as §1

Assay [2] relates to A172 cells. As to the kind of experiment: Western blot of p53, p73, p21 and Bax in A172 cells. Type of assay: cell-based, human. The protocol: FIG. 3: Detection of p53 and p73 in A172 cells treated with CDR. The A172 cells were treated with the concentrations indicated (2, 5 or 10 μM) with the various compounds and for the periods of time indicated (24 hrs or 6 hrs). The proteins were extracted with a lysis buffer and were separated on 10% SDS-Page gel. After being transferred onto nitrocellulose, the p53 and p73 proteins were detected by Western blot using anti-p53 (pAb1801) and anti-p73 (1/200, Ab2, Oncogene) antibody.
FIG. 4: Detection of p21 and Bax in A172 cells treated with CDR. The A172 cells were treated with the various compounds (10 μM) for 24 hrs. The proteins were extracted with a lysis buffer and were separated on 10% SDS-Page gel. After being transferred onto nitrocellulose, the p21 and Bax proteins were detected by Western blot using anti-p21 (1/200, Oncogene) and anti-Bax (1/2000, Santacruz) antibody.
as §2

The test system of assay [3] is 2008/CMV and 2008/ATP7B cells. Kind of assay: MTT test on 2008/CMV and 2008/ATP7B cells. Type of assay: cell-based. Conditions: 48 hrs. The procedure: FIG. 6: The 2008/CMV and 2008/ATP7B cells (contributed by Dr. Howell) were cultivated in plates with 96 wells in DMEM medium with 10% calf serum. At 30% confluence, the cells were treated for 48 hrs with cisplatinum or the various compounds derived from ruthenium in the concentrations indicated (1, 5, 15, 50 μM). The quantity of cells present in the wells was evaluated by an MTT (MTT, Sigma) test. The results obtained were related to the values of the control condition (100% viability). The graphs show an average of 8 points with the typical spacings over one experiment representative of 3 carried out. The thick black line indicates the IC50 for each graph.
One of these mechanisms is the overexpression of the copper export pump (ATP7B) which expels cisplatinum from the cell. It has been shown that this molecule is overexpressed in human tumours and that cell lines which overexpress this molecule are more resistant to cisplatinum and carboplatinum than control lines.
Two cell lines derived from 2008 cells (Katano, Safaei et al. 2003) were studied. One overexpresses the ATP7B pump, and the other only contains the control vector. The cytostatic activity of the cisplatinum and the CDR was tested in these two lines using the MTT test.

In assay [4] the test system is A172 cells. As to the kind of experiment: MTT test on A172 cells, combination with NCS or Taxol. It counts as cell-based, human. The note with it: concentration bringing about 10% of the maximum effect; 48 hrs. The protocol:
FIG. 7: The A172 cells were cultivated in plates with 96 wells in DMEM medium with 10% calf serum. At 30% confluence, the cells were treated for 48 hrs with cisplatinum, CDR6, NCS (Neocarzinostatin), Taxol or a combination of these drugs in the concentrations indicated. The quantity of cells present in the wells was evaluated by an MTT (MTT, Sigma) test, the reaction products of which are quantified with an Elisa plate reader (Metertech, USA) (490-650 nm). […] The graphs show an average of 8 points with the typical spacings over one experiment representative of 4 carried out. The thick black line indicates the IC50 for each graph.
The mechanisms induced by various anticancer drugs are different according to the mode of action of these drugs. […] NCS induces DNA double strand breaks, similar to those of gamma rays (Smith and Nicolaou 1996). Taxol disrupts the mitotic spindles (Oberlies and Kroll 2004).
A comparison was made using two doses of NCS and two doses of Taxol. The one enables one to expect the IC50, the other leads to a reduction by 10% of the cell viability after 48 hrs treatment. These two concentrations were combined with a concentration of ruthenium derivative or cisplatinum bringing about 10% of the maximum effect.

The structures appear in SMILES notation.

With `CN(C)Cc1cccc[c]1[Ru+].CP(C)c1ccccc1.F[P-](F)(F)(F)(F)F.c1ccccc1` [Compound 6, [Ru (η^6-C6H6)-2-(CH2NMe2)—C6H4—(PMe2Ph)]PF6], the “reduction of the number of tumoral cells (MTT)” value in assay [1] is listed as “at a concentration similar to or lower than that of cisplatinum”. Also, in the assay with HCT116 cells, the “increase in expression of p21 and inhibition of phosphorylation of histone H3” value is “identical for CDR 6 and cisplatinum”. The “induction of p53” value with HCT116 cells (6 hrs to 24 hrs) is given as “induction of p53”. The “nuclear condensation and fragmentation” value in the assay on A172 glioblastoma cells (48 hrs treatment) was “induce nuclear condensation and fragmentation characteristic of apoptosis”. The “proteic levels of the active fragment of caspase 3 (Western blot)” value with A172 glioblastoma cells (cisplatinum 15 μM, CDR6 15 μM, CDR9 15 μM) is listed as “increasing the proteic levels of the active fragment of caspase 3”. Besides, the “expression of p21 and Bax” value in the assay with A172 cells [2] (10 μM, 24 hours treatment) was “induces the expression of p21 and Bax”. For the same compound, the p53 proteic levels result with A172 cells [2] (6 hrs treatment) is “induce p53”; with A172 cells [2] (24 hrs treatment) it was “no effect”. Further, in assay [3], the “sensitivity of the line expressing ATP7B relative to the control line (MTT)” value was “equivalent to that of the control line”. For the same compound, in the assay with A172 cells [4], the “effectiveness of co-treatment with NCS or Taxol” value was “significantly more effective in relation to a co-treatment with cisplatinum”.
